Assays:
[1] = Compound stability in human liver microsomes; assay type: in vitro ADME; conditions: pH 7.4; for CLint scaled at 5 μM: liver microsomes, in vivo CLint extrapolated from human liver microsome incubation; for half-life at 5 μM: human liver microsomes 0.5 mg protein/mL, compound 5 μM, NADPH, 37° C., read-out: Human T1/2
Experimental: (§1) Human or rat liver microsomes incubations were conducted in duplicate in polypropylene tubes. The typical incubation mixtures consisted of human or rat liver microsomes (0.5 mg protein/mL), compounds of interest (5 μM) and NADPH (1.0 mM) in a total volume of 200 μL potassium phosphate buffer (PBS, 100 mM, pH 7.4). Compounds were dissolved in DMSO and diluted with PBS such that the final concentration of DMSO was 0.05%. The enzymatic reactions were commenced with the addition of protein after a 3-min preincubation and incubated in a water bath open to the air at 37° C. Reactions were terminated at various time points (0, 5, 10, 15, 30, 60 min) by adding equal volume of ice-cold acetonitrile. The samples were stored at −80° C. until LC/MS/MS assays.
(§2) The concentrations of compounds in the incubation mixtures of human or rat liver microsomes were determined by a LC/MS/MS method. The ranges of the linearity in the concentration range were determined for each tested compounds.
(§3) A parallel incubation was performed using denatured microsomes as the negative control, and reactions were terminated at various time points (0, 15, 60 min) after incubation at 37° C.
(§4) Dextromethorphan (70 μM) was selected as the positive control, and reactions were terminated at various time points (0, 5, 10, 15, 30, 60 min) after incubation at 37° C. Both positive and negative control samples were included in each assay to ensure the integrity of the microsomal incubation system.
(§5) The concentrations of compounds in human or rat liver microsome incubations were plotted as a percentage of the relevant zero time point control for each reaction.

[2] = Compound stability in rat liver microsomes; assay type: in vitro ADME; conditions: for CLint scaled at 5 μM: liver microsomes, in vivo CLint extrapolated from rat liver microsome incubation; for CLint scaled at 5 μM / half-life at 5 μM: pH 7.4; for half-life at 5 μM: read-out: Rat T1/2
Experimental: as §1, §2, §3, §4, §5

[3] = Pharmacokinetic profiles in rats; assay type: in vivo, rat; conditions: for clearance / AUC(0-t) / half-life / Vd: iv dosing 1 mg/kg; for AUC(0-t) / half-life / Vd / bioavailability: rat, plasma; for Vd: read-out: Vss; for bioavailability: oral bioavailability
Experimental: The compounds disclosed herein are assessed in pharmacokinetic studies in mice, rats, dogs or monkeys. The compounds are administered as a water solution, 2% HPMC+1% TWEEN®80 in water solution, 5% DMSO+5% solutol in saline, 4% MC suspension or capsule. For the intravenous administration, the animals are generally given at 1 or 2 mg/kg dose. For the oral (p.o.) dosing, mice and rats are generally given 5 or 10 mg/kg dose, and dogs and monkeys are generally given 10 mg/kg dose. The blood samples (0.3 mL) are drawn at 0.25, 0.5, 1.0, 2.0, 3.0, 4.0, 6.0, 8.0, 12 and 24 h time points or 0.083, 0.25, 0.5, 1.0, 2.0, 4.0, 6.0, 8.0 and 24 h time points and centrifuged at 3,000 or 4000 rpm for 2 to 10 min. The plasma solutions are collected, stored at −20° C. or −70° C. until analyzed by LC/MS/MS as described above.

PI3K (p110α/p85α) (h) = PI3K (p110α/p85α) (h) (Homo sapiens (Human), UniProt P42336); test: PI3K (p110α/p85α) (h) non-radioactive HTRF kinase assay; assay type: biochemical
Sequence of PI3K (p110α/p85α) (h) (P42336 whole entry, the tested form may be a part): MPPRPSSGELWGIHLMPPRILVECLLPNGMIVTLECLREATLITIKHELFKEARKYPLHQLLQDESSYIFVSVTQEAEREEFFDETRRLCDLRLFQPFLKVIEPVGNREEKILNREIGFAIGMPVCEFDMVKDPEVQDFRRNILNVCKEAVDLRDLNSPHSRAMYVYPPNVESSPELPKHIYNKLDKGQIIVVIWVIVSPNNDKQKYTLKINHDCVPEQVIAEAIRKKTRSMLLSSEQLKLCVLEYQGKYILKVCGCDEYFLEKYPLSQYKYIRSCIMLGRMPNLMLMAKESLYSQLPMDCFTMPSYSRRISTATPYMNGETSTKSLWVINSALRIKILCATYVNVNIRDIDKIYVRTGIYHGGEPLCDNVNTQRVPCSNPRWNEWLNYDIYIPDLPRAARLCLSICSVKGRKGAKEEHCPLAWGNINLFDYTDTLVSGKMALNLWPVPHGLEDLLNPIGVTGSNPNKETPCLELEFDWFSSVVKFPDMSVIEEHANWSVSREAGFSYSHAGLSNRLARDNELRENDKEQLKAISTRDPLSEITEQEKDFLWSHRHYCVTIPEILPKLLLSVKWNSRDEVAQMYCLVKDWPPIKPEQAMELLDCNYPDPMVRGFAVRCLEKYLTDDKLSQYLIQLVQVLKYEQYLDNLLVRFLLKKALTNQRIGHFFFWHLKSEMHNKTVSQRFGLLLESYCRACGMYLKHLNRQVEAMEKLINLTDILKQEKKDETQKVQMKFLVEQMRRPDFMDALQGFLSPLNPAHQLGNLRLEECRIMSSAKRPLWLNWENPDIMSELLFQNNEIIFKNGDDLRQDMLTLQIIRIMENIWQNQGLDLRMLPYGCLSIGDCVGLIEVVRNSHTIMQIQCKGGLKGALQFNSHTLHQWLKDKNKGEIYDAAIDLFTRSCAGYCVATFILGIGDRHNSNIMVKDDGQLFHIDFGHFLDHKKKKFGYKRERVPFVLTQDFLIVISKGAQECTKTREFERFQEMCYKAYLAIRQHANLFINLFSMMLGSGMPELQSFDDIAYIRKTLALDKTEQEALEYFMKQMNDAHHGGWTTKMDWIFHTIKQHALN
Sequence of PI3K (p110α/p85α) (h) (P27986 whole entry partner, the tested form may be a part): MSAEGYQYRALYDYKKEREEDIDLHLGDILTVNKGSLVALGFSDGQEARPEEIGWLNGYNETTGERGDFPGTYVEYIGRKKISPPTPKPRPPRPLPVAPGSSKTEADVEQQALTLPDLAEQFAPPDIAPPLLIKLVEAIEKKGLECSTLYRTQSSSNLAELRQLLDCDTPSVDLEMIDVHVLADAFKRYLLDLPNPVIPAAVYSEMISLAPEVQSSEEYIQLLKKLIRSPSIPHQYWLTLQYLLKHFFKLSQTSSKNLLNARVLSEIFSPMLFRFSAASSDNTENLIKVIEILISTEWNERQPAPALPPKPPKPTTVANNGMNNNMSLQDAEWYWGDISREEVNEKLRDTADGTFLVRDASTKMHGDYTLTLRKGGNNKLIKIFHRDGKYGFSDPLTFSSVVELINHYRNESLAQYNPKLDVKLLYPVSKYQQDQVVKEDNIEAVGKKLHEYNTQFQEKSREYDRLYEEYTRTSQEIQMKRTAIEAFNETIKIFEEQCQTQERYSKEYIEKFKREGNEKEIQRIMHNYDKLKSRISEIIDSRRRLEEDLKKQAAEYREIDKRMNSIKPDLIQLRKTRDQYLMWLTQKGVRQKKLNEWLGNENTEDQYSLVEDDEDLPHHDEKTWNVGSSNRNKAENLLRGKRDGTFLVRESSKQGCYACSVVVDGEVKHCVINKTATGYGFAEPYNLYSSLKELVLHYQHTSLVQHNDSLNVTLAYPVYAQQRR
Experimental: (§6) PI3K (p110α/p85α) (h) is incubated in assay buffer containing 10 μM phosphatidylinositol 4,5-bisphosphate and MgATP (concentration as required). The reaction is initiated by the addition of the ATP solution. After incubation for 30 minutes at room temperature, the reaction is stopped by the addition of stop solution containing EDTA and biotinylated phosphatidylinositol-3,4,5-trisphosphate. Finally, detection buffer is added, which contains europium-labelled anti-GST monoclonal antibody, GST-tagged GRP1 PH domain and streptavidin allophycocyanin. The plate is then read in timeresolved fluorescence mode and the homogenous time-resolved fluorescence (HTRF) signal is determined according to the formula HTRF=10000×(Em665 nm/Em620 nm).
(§7) The kinase assays described herein were performed at Millipore UK Ltd, Dundee Technology Park, Dundee DD2 1SW, UK.

PI3K (p110β/p85α) (h) = PI3K (p110β/p85α) (h) (Homo sapiens (Human), UniProt P42338); test: PI3K (p110β/p85α) (h) non-radioactive HTRF kinase assay; assay type: biochemical
Sequence of PI3K (p110β/p85α) (h) (P42338 whole entry): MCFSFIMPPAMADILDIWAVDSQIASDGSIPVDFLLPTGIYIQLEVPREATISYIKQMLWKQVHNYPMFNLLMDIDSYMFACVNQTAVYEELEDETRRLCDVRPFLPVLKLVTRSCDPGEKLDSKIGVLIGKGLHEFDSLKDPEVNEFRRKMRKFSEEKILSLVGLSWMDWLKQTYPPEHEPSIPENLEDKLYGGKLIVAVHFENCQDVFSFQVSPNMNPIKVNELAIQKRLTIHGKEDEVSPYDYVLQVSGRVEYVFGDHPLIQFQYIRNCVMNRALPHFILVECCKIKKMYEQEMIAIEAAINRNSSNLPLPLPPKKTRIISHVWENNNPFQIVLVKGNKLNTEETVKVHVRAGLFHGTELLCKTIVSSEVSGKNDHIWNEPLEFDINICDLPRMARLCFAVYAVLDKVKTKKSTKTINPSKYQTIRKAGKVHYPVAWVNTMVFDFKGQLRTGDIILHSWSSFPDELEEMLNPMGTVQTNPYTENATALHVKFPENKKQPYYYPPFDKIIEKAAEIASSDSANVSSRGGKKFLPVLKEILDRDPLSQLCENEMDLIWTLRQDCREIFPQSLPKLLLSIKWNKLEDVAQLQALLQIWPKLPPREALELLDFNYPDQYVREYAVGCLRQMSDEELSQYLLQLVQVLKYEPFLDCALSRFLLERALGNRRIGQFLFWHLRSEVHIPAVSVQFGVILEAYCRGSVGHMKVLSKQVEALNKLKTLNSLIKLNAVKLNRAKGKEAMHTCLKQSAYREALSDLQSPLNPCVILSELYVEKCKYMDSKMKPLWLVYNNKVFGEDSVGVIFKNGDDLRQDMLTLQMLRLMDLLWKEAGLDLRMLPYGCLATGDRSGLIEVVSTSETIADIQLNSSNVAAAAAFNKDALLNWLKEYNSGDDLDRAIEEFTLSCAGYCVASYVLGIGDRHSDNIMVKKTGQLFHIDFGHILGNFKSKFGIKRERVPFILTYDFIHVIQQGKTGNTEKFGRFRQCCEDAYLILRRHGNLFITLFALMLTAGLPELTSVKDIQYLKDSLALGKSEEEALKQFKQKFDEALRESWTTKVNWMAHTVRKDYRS
Sequence of PI3K (p110β/p85α) (h) (P27986 whole entry partner): as the sequence (P27986 whole entry partner, the tested form may be a part) above
Experimental: as §6, with “(p110β/p85α)” for “(p110α/p85α)”, “phosphatidylinositol-4,5-bisphosphate” for “phosphatidylinositol 4,5-bisphosphate”, “MgATP mix.” for “ATP solution.”, “streptavidin-allophycocyanin.” for “streptavidin allophycocyanin.”
as §7

PI3K (p110δ/p85α) (h) = PI3K (p110δ/p85α) (h) (Homo sapiens (Human), UniProt O00329); test: PI3K (p110δ/p85α) (h) non-radioactive HTRF kinase assay; assay type: biochemical
Sequence of PI3K (p110δ/p85α) (h) (O00329 whole entry): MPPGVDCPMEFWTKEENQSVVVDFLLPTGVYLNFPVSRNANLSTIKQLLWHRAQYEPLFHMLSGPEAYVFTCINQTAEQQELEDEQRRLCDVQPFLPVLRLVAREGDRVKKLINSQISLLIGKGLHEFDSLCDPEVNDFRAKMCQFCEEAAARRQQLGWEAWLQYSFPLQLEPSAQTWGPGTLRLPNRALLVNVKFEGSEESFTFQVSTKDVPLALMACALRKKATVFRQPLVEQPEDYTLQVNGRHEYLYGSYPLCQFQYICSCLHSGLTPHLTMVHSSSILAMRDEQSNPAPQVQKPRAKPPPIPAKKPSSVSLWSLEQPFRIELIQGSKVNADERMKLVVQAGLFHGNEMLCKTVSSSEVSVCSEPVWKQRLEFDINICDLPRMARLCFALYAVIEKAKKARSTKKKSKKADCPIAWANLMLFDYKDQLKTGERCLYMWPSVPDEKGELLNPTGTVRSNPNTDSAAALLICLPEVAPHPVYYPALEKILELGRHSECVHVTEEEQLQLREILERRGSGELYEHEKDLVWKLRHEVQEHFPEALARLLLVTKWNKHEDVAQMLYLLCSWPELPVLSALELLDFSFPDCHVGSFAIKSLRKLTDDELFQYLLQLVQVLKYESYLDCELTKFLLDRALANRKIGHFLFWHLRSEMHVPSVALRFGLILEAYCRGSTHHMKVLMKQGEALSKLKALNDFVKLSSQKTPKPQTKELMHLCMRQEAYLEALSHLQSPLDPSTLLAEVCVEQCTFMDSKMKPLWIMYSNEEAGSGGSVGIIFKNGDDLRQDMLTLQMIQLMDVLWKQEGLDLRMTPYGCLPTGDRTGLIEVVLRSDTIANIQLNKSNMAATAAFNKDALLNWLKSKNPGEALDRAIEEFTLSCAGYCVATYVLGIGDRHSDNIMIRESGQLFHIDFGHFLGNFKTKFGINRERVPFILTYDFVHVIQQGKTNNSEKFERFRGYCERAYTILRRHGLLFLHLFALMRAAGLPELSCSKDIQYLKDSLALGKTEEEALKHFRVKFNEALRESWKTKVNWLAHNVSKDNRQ
Sequence of PI3K (p110δ/p85α) (h) (P27986 whole entry partner): as the sequence (P27986 whole entry partner, the tested form may be a part) above
Experimental: as §6, with “(p110δ/p85α)” for “(p110α/p85α)”, “phosphatidylinositol-4, 5-bisphosphate” for “phosphatidylinositol 4,5-bisphosphate”, “MgATP mix.” for “ATP solution.”, “streptavidin-allophycocyanin.” for “streptavidin allophycocyanin.”
as §7

PI3K (p120γ) (h) = PI3K (p120γ) (h) (Homo sapiens (Human), UniProt P48736); test: PI3K (p120γ) (h) non-radioactive HTRF kinase assay; assay type: biochemical
Sequence of PI3K (p120γ) (h) (P48736 whole entry): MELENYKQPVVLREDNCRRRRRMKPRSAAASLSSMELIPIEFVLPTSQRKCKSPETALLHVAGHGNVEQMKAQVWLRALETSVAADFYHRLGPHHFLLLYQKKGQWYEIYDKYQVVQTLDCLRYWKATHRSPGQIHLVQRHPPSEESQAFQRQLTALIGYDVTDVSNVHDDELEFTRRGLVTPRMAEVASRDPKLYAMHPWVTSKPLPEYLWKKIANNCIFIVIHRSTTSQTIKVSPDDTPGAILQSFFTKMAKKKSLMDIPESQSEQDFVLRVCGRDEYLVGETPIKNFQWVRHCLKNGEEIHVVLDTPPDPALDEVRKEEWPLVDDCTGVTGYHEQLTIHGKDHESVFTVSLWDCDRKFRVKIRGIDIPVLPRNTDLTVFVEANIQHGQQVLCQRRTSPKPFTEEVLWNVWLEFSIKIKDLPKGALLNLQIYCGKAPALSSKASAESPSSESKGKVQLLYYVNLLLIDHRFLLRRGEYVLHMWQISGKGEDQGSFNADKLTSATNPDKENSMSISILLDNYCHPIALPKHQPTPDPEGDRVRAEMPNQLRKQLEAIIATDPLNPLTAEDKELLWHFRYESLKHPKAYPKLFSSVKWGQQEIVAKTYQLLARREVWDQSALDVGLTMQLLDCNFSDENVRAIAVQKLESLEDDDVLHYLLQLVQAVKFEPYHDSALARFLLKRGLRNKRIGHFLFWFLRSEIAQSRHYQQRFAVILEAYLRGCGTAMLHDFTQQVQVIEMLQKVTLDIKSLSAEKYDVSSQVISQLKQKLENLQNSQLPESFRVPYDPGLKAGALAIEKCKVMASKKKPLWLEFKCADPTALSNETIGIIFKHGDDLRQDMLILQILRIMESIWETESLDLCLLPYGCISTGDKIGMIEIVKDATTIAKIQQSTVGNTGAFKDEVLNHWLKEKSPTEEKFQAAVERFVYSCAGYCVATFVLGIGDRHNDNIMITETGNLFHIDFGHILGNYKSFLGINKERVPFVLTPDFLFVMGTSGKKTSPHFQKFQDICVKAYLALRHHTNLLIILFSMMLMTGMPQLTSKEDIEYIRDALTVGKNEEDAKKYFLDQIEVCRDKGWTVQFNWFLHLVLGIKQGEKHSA
Experimental: as §6, with “(p120γ)” for “(p110α/p85α)”, “phosphatidylinositol-4, 5-bisphosphate” for “phosphatidylinositol 4,5-bisphosphate”, “MgATP mix.” for “ATP solution.”, “streptavidin-allophycocyanin.” for “streptavidin allophycocyanin.”
as §7

[4] = rat liver microsomes 0.5 mg protein/mL, compound 5 μM, NADPH, 37° C.

CLint scaled at 5 μM [1] [mL/min/kg]	half-life at 5 μM [1] [h]	CLint scaled at 5 μM [2] [mL/min/kg]	half-life at 5 μM [2, 4] [h]	clearance [3] [mL/min/kg]	AUC(0-t) [3] [ng·h/mL]	half-life [3] [h]	Vd [3] [L/kg]	bioavailability [3] [%]	Rat T1/2 [2, 4]	IC50 (PI3K (p110α/p85α) (h)) [nM]	IC50 (PI3K (p110β/p85α) (h)) [nM]	IC50 (PI3K (p110δ/p85α) (h)) [nM]	IC50 (PI3K (p120γ) (h)) [nM]	SMILES
14.3	2.03	2.5	16.3	9.17	1440	3.24	2.38	120	–	–	–	–	–	Cc1noc(-c2c(N)ncnc2N[C@@H](C)c2nc3cccc(C#CC(C)(C)O)c3c(=O)n2-c2ccccc2)n1 [Example 1, (S)-2-(1-((6-amino-5-(3-methyl-1,2,4-oxadiazol-5-yl)pyrimidin-4-yl)amino)ethyl)-5-(3-hydroxy-3-methylbut-1-yn-1-yl)-3-phenylquinazolin-4(3H)-one]
3.84	7.54	–	–	11.3	1370	1.42	1.3	106	∞	–	–	–	–	Cc1nnc(-c2c(N)ncnc2N[C@@H](C)c2nc3cccc(C#CC(C)(C)O)c3c(=O)n2-c2ccccc2)o1 [Example 2, (S)-2-(1-((6-amino-5-(5-methyl-1,3,4-oxadiazol-2-yl)pyrimidin-4-yl)amino)ethyl)-5-(3-hydroxy-3-methylbut-1-yn-1-yl)-3-phenylquinazolin-4(3H)-one]
9.46	3.06	4.75	8.72	13	1210	1.76	–	146	–	–	–	–	–	Cc1nc(-c2c(N)ncnc2N[C@@H](C)c2nc3cccc(C#CC(C)(C)O)c3c(=O)n2-c2ccccc2)no1 [Example 3, (S)-2-(1-((6-amino-5-(5-methyl-1,2,4-oxadiazol-3-yl)pyrimidin-4-yl)amino)ethyl)-5-(3-hydroxy-3-methylbut-1-yn-1-yl)-3-phenylquinazolin-4(3H)-one]
5.8	5	5.58	7.41	8.33	1870	1.87	1.04	134	–	–	–	–	–	C[C@H](Nc1ncnc(N)c1-c1nnn(C)n1)c1nc2cccc(C#CC(C)(C)O)c2c(=O)n1-c1ccccc1 [Example 4, (S)-2-(1-((6-amino-5-(2-methyl-2H-tetrazol-5-yl)pyrimidin-4-yl)amino)ethyl)-5-(3-hydroxy-3-methylbut-1-yn-1-yl)-3-phenylquinazolin-4(3H)-one]
6.34	4.57	15.3	2.71	19.3	862	0.61	0.61	38.3	–	–	–	–	–	Cc1nnc(-c2c(N)ncnc2N[C@@H](C)c2nc3cccc(C#CC(C)O)c3c(=O)n2-c2ccccc2)o1 (stereo partly drawn) [Example 7, 2-((S)-1-((6-amino-5-(5-methyl-1,3,4-oxadiazol-2-yl)pyrimidin-4-yl)amino)ethyl)-5-(3-hydroxybut-1-yn-1-yl)-3-phenylquinazolin-4(3H)-one]
–	–	–	–	–	–	–	–	–	–	2800	548	6	340	CC#Cc1cccc2nc([C@H](C)Nc3ncnc(N)c3-c3nnc(C)o3)n(-c3ccccc3)c(=O)c12 [Example 10, (S)-2-(1-((6-amino-5-(5-methyl-1,3,4-oxadiazol-2-yl)pyrimidin-4-yl)amino)ethyl)-3-phenyl-5-(prop-1-yn-1-yl)quinazolin-4(3H)-one]
–	–	–	–	–	–	–	–	–	–	> 3000	> 3000	27	704	CC#Cc1cccc2nc([C@H](CC)Nc3ncnc(N)c3-c3nnc(C)o3)n(-c3ccccc3)c(=O)c12 [Example 15, (S)-2-(1-((6-amino-5-(5-methyl-1,3,4-oxadiazol-2-yl)pyrimidin-4-yl)amino)propyl)-3-phenyl-5-(prop-1-yn-1-yl)quinazolin-4(3H)-one]
62.5	0.464	41.8	0.991	25.3	675	0.97	1.83	83.7	–	–	–	–	–	CC#Cc1cccc2nc([C@H](C)Nc3ncnc(N)c3-c3nnc(C)o3)n(C3CC3)c(=O)c12 [Example 22]
40.4	0.717	52.7	0.785	21.3	790	0.76	1.35	40.4	–	–	–	–	–	Cc1nc(-c2c(N)ncnc2N[C@@H](C)c2nc3cccc(C#CCO)c3c(=O)n2-c2ccccc2)no1 [Example 38, (S)-2-(1-((6-amino-5-(5-methyl-1,2,4-oxadiazol-3-yl)pyrimidin-4-yl)amino)ethyl)-5-(3-hydroxyprop-1-yn-1-yl)-3-phenylquinazolin-4(3H)-one]
89.4	0.324	79.8	0.519	23	722	0.73	1.11	70.8	–	–	–	–	–	C#Cc1cccc2nc([C@H](C)Nc3ncnc(N)c3-c3nnn(C)n3)n(C3CC3)c(=O)c12 [Example 52, (S)-2-(1-((6-amino-5-(2-methyl-2H-tetrazol-5-yl)pyrimidin-4-yl)amino)ethyl)-3-cyclopropyl-5-ethynylquinazolin-4(3H)-one]
